Source: PMC6272242, “Topical Anti-inflammatory Activity of New Hybrid Molecules of Terpenes and Synthetic Drugs” (Molecules, 2015)

What was measured:
[1] = test system: mice ear edema induced by arachidonic acid; assay: Topical anti-inflammatory effect, arachidonic acid (AA) induced ear edema in mice; assay type: in vivo; details: 3.2 µmol/mouse; for inhibition in vivo at 3.2 µmol/animal / % TAAA ± SEM (percent reduction of the ear edema, arachidonic acid): 1 h after AA; for inhibition in vivo at 3.2 µmol/animal: n = 8, read-out: % TAAA ± SEM (percent reduction of the ear edema, arachidonic acid); for % TAAA ± SEM (percent reduction of the ear edema, arachidonic acid): n = 8
Method: (§1) The inflammatory agent arachidonic acid (AA) and phorbol 12-myristate 13-acetate (TPA) were used to assess the anti-inflammatory effect/action mechanism of the starting compounds, new synthetic products and reference drugs. […] Adult male CF-1 mice (20–25 g), obtained from a stock maintained at the Chilean Public Health Institute, were used to assess the anti-inflammatory effect. All animals were housed in a climate- and light-controlled room with a 12 h light-dark cycle, fasted overnight before the day of the assays, with free access to water. The anti-inflammatory activity of each compound was evaluated in groups of 8 treated and 16 control mice. Due to ethical considerations, the number of animals was kept to a minimum and single dose experiments were carried out.
(§2) The pro-inflammatory agents TPA and AA, the reference drugs indomethacin and nimesulide were from Sigma. […] After 5 min, inflammation was induced by the application of 20 µL TPA or AA (5 mg/mL) in acetone. […] Control subjects only received TPA or AA. Both, the sample and the TPA or AA, were applied to the inner (10 µL) and outer (10 µL) surfaces of the right ear. The left ear only received acetone. Mice were sacrificed by cervical dislocation (after 6 h of TPA and 1 h AA), and a 6 mm diameter section of the right and left ears were cut and weighed. The weight differences between both ear sections correspond to the edema value. The percent topical anti-inflammatory activity (TA) was evaluated according to the following equation: (1) %TA=[ Wc−Ws/Wc]× 100 where Wc and Ws are the different median values of the weights of the right and the left ear sections of the control and the treated animals, respectively.
(§3) For the animal experiments all values are presented as median ± SEM. Drug-induced changes were statistically estimated using the Kruskall-Wallis test for comparison between groups and testing, and the Mann-Whitney test was used in the independent data for individual comparisons. The effects were considered significant if p ≤ 0.05. For cytotoxicity experiments, each concentration was tested in quadruplicate together with the control and repeated three times in different experiments. Results are expressed as IC50 values (µM) ± S.D.

[2] = test system: mice ear edema induced by 12-O-tetradecanoylphorbol 13-acetate; assay: Topical anti-inflammatory effect, 12-O-tetradecanoylphorbol 13-acetate (TPA) induced ear edema in mice; assay type: in vivo; details: 1.4 µmol/mouse; for inhibition in vivo at 1.4 µmol/animal / % TATPA ± SEM (percent reduction of the ear edema, TPA): 6 h after TPA; for inhibition in vivo at 1.4 µmol/animal: n = 8, read-out: % TATPA ± SEM (percent reduction of the ear edema, TPA); for % TATPA ± SEM (percent reduction of the ear edema, TPA): n = 8
Method: as §1, §2, §3

lung fibroblasts (MRC-5) = assay: Cytotoxicity, MTT reduction assay, MRC-5; assay type: cell-based; details: Homo sapiens, MRC5, confluent cultures, 24 h, read-out: IC50 ± SD, MRC-5
Method: (§4) The human cell lines, MRC-5 normal lung fibroblasts (CCL-171), AGS gastric epithelial adenocarcinoma cells (CRL-1739) and HepG2 hepatocellular carcinoma cells (HB-8065) were obtained from the American Type Culture Collection (ATCC, Manasas, VA, USA). The cells were grown as monolayers in the following media: MRC-5 and HepG2 in MEM and AGS in Ham F-12. The MEM medium contained 2 mM L-glutamine, 1 mM sodium pyruvate and 1.5 g/L sodium bicarbonate. Ham F-12 was supplemented with 2 mM L-glutamine and 1.5 g/L sodium bicarbonate. Both media were supplemented with 10% heat inactivated fetal bovine serum, 100 IU/mL penicillin and 100 µg/mL streptomycin in a humidified incubator with 5% CO2 in air at 37 °C. For the experiments, cells were plated at a density of 25,000 cells/mL in 96-well plates. […] Compounds were first dissolved in DMSO and then in medium. The final concentration of DMSO in the test medium and controls was 1%. […] The cell viability for each compound was calculated comparing the cell viability of the untreated controls (100%) with the cell viability of the different concentrations of each compound. Each concentration was tested in quadruplicate together with the control and repeated three times in separate experiments. Cell viability was determined at the end of the incubation by means of the MTT reduction assay. Results were converted to percentage of controls, and the IC50 values were graphically obtained from the dose-response curves. Culture media, antibiotics and fetal bovine serum were obtained from Invitrogen Corp. (Waltham, MA, USA). Other reagents were purchased from Sigma Chemical Co. For the animal experiments all values are presented as median ± SEM. Drug-induced changes were statistically estimated using the Kruskall-Wallis test for comparison between groups and testing, and the Mann-Whitney test was used in the independent data for individual comparisons. The effects were considered significant if p ≤ 0.05. For cytotoxicity experiments, each concentration was tested in quadruplicate together with the control and repeated three times in different experiments. Results are expressed as IC50 values (µM) ± S.D.

[3] = test system: gastric epithelial cells (AGS); assay: Cytotoxicity, MTT reduction assay, AGS; assay type: cell-based; details: Homo sapiens, Epithelial cell, confluent cultures, 24 h, read-out: IC50 ± SD, AGS
Method: as §4

hepatocytes HepG2 = assay: Cytotoxicity, MTT reduction assay, HepG2; assay type: cell-based; details: Homo sapiens, confluent cultures, 24 h, read-out: IC50 ± SD, HepG2
Method: as §4, with “Results were converted to percentage of controls, and the IC50 values were graphically obtained from the dose-response curves.” left out

[4] = test system: human lung fibroblasts (MRC-5), gastric epithelial cells (AGS) and hepatocytes HepG2; assay: Cytotoxicity, MTT reduction assay, summary over the three cell lines; assay type: cell-based; details: for IC50: Homo sapiens, MRC-5, AGS and HepG2, 24 h, MTT, read-out: IC50 values, range over the three cell lines; for Cytotoxic effect, in words: MRC-5, AGS and HepG2
Method: as §4

Row | SMILES | inhibition in vivo at 3.2 µmol/animal [1] [%] | inhibition in vivo at 1.4 µmol/animal [2] [%] | IC50 (lung fibroblasts (MRC-5)) [µM] | IC50 [3] [µM] | IC50 (hepatocytes HepG2) [µM] | IC50 [4] [µM] | Activity in the AA model, in words [1] | % TAAA ± SEM (percent reduction of the ear edema, arachidonic acid) [1] | % TATPA ± SEM (percent reduction of the ear edema, TPA) [2] | Cytotoxic effect, in words [4] | Activity in the TPA assay, in words [2]
1 | CC(C)Cc1ccc([C@H](C)C(=O)Oc2cc3c(cc2C(C)C)CCC2C(C)(C)CCC[C@]32C)cc1 (mixture of isomers) [Compound 6, Ferruginyl ibuprofenate] | 14.9 ± 7.1 | 47.9 ± 4.6 | > 1000 | > 1000 | 874 ± 34 | ≥ 874 |  |  |  |  | 
2 | C=C1CCC2[C@](C)(CCC[C@]2(C)C(=O)O)[C@H]1CC[C@@H](C)CCOC(=O)[C@@H](C)c1ccc(CC(C)C)cc1 (mixture of isomers) [Compound 8, Imbricatol-15-yl ibuprofenate] | 10 ± 6 | 40.3 ± 2.4 | 34 ± 2 | 23 ± 1 | 79 ± 8 | 23 to 79 |  |  |  |  | 
3 | C=C1CCC2[C@](C)(CCC[C@]2(C)C(=O)OC)[C@H]1CC[C@@H](C)CCOC(=O)[C@@H](C)c1ccc(CC(C)C)cc1 (mixture of isomers) [Compound 9, Imbricatol-15-yl ibuprofenate methyl ester] | 14.9 ± 7.4 | 41.2 ± 6.2 | 706 ± 35 | 623 ± 39 | 746 ± 38 | ≥ 601 |  |  |  |  | 
4 | CC(C)Cc1ccc([C@H](C)C(=O)O[C@H]2CC[C@@]3(C)C(CC[C@]4(C)C3CC=C3C5CC(C)(C)CC[C@]5(C(=O)O)CC[C@]34C)C2(C)C)cc1 (mixture of isomers) [Compound 12, Oleanoyl ibuprofenate] | 56.8 | 79.9 | 616 ± 32 | 526 ± 19 | > 1000 |  | significant effect | 56.8 ± 7.4 % | 79.9 ± 10.6 % |  | 
5 | COC(=O)[C@]12CCC(C)(C)CC1C1=CCC3[C@@]4(C)CC[C@H](OC(=O)[C@@H](C)c5ccc(CC(C)C)cc5)C(C)(C)C4CC[C@@]3(C)[C@]1(C)CC2 (mixture of isomers) [Compound 13, Oleanoyl ibuprofenate methyl ester] | 19.5 ± 9.2 | 47.4 ± 2.6 | 402 ± 20 | 454 ± 21 | 742 ± 48 |  |  |  |  |  | 
6 | CC(C)c1cc2c(cc1O)[C@@]1(C)CCCC(C)(C)[C@@H]1CC2 [Compound 1, ferruginol, reference compound] | 21 ± 2.1 | 20.4 ± 3.1 | 31 ± 2 | 29 ± 1 | 39 ± 3 | 29 to 39 |  | 21.0 ± 2.1 *^,a % | 20.4 ± 3.1 *^,a % | strong | 
7 | C=C1CC[C@@H]2[C@](C)(CCC[C@]2(C)C(=O)O)[C@H]1CC[C@H](C)CCO [Compound 2, imbricatolic acid, reference compound] | 5 ± 3 | 10.1 ± 4 | 134 ± 7 | 148 ± 9 | 111 ± 7 | 111 to 148 |  |  |  | moderate | 
8 | CC1(C)CC[C@]2(C(=O)O)CC[C@]3(C)C(=CC[C@@H]4[C@@]5(C)CC[C@H](O)C(C)(C)[C@@H]5CC[C@]43C)[C@@H]2C1 [Compound 3, oleanolic acid, reference compound] | 2.7 ± 7.5 | 70.2 ± 8.3 | 186 ± 9 | 234 ± 16 | 170 ± 5 |  | inactive |  | 70.2 ± 8.3 *^,a % |  | active
9 | COc1ccc2cc([C@H](C)C(=O)O)ccc2c1 [Compound 5, naproxen, reference compound] |  | 29.9 ± 6.2 | > 1000 | > 1000 |  |  | inactive |  |  |  | 
10 | COc1ccc2cc([C@H](C)C(=O)O[C@H]3CC[C@@]4(C)C(CC[C@]5(C)C4CC=C4C6CC(C)(C)CC[C@]6(C(=O)O)CC[C@]45C)C3(C)C)ccc2c1 (some centres unmarked) [Compound 14, Oleanoyl naproxenate] | 9 ± 11.3 | 55.5 ± 5.1 | 554 ± 22 | 486 ± 26 | > 1000 |  |  |  |  |  | 
11 | COC(=O)[C@]12CCC(C)(C)CC1C1=CCC3[C@@]4(C)CC[C@H](OC(=O)[C@@H](C)c5ccc6cc(OC)ccc6c5)C(C)(C)C4CC[C@@]3(C)[C@]1(C)CC2 (some centres unmarked) [Compound 15, Oleanoyl naproxenate methyl ester] | 2.7 ± 8.1 | 80 | 816 ± 42 | 593 ± 31 | > 1000 |  |  |  | 80.0 ± 11.0 % |  | 
12 | COc1cc([C@@H]2c3cc4c(cc3[C@@H](O[C@@H]3O[C@@H]5CO[C@@H](C)O[C@H]5[C@H](O)[C@H]3O)[C@H]3COC(=O)[C@H]23)OCO4)cc(OC)c1O [Etoposide, reference compound] |  |  | 3.9 ± 0.1 | 0.36 ± 0.02 | 2.4 ± 0.1 |  |  |  |  |  | 
13 | COc1ccc2c(c1)c(CC(=O)O)c(C)n2C(=O)c1ccc(Cl)cc1 [Indomethacin, reference compound] |  | 92.9 |  |  |  |  |  |  | ↑92.9 ± 13.2 % |  | 
14 | CS(=O)(=O)Nc1ccc([N+](=O)[O-])cc1Oc1ccccc1 [Nimesulide, reference compound] | 48.9 |  |  |  |  |  |  | ↑48.9 ± 5.5 % |  |  | 
